The text below walks through data of patent US4351948A, “Imidazole hydrazone derivatives” (priority 1980, dated 1982).

In brackets after ≈: the same amount, converted by molar mass. Where two headings read alike, the source gives them in different places.

The subject of assay [1] is Desulfovibrio desulfuricans API-SW2. In words: Minimal inhibitory concentration against anaerobic bacteria. The settings on record: for Minimal Inhibitory Concentration: 24 hours at 37° C.
In assay [2] the test system is Desulfovibrio desulfuricans API-BREWER. Described as above. The settings on record: 24 h.
Assay [3] concerns Bacteroides uniformis ATCC 8492. The description is as above. The settings on record: ATCC8492, 24 h.
The subject of assay [4] is Bacteroides fragilis ATCC 23745. The assay is described as above. The settings on record: ATCC23745, 24 h.
Assay [5] relates to Clostridium sporogenes ATCC 19404. Described as above. In kind it is cell-based. The settings on record: ATCC19404, 24 h.
Assay [6] relates to C. perfringens (ATCC 13124). Kind of assay: microbe, parasite or virus in culture. In kind it is cell-based. The settings on record: Clostridium perfringens, ATCC13124, 24 h.
Assay [7] deals with Desulfovibrio desulfuricans API-CORE. In words: Minimal inhibitory concentration against anaerobic bacteria. The settings on record: 24 h.
[8] abbreviates: read-out: Minimal Inhibitory Concentration, Test 1, 24 hours at 37° C.
Where [9] appears, read: read-out: Minimal Inhibitory Concentration, Test 2, 24 hours at 37° C.
Setting [10] is: read-out: Minimal Inhibitory Concentration, Test 3, 24 hours at 37° C.

Take `Cc1ncc([N+](=O)[O-])n1CCO` [Metronidazole, 2-methyl-5-nitro-1H-imidazole-1-ethanol, reference compound]: the MIC in assay [1] (Desulfovibrio desulfuricans, APISW2, 24 h, read-out: Minimal Inhibitory Concentration) came to 0.25 µg/mL (≈ 1.46 µM); in assay [2] (setting [8]), 0.5 µg/mL (≈ 2.92 µM); in assay [2] (setting [9]), 0.5 µg/mL (≈ 2.92 µM); in assay [2] (setting [10]) it was 0.5 µg/mL (≈ 2.92 µM); in assay [3] (setting [8]), 0.5 µg/mL (≈ 2.92 µM); in assay [3] (setting [9]) it was 0.25 µg/mL (≈ 1.46 µM). Also, the MIC in assay [3] (setting [10]) worked out at 0.25 µg/mL (≈ 1.46 µM); in assay [4] (setting [8]), 0.75 µg/mL (≈ 4.38 µM); in assay [4] (setting [9]) it was 0.75 µg/mL (≈ 4.38 µM); in assay [4] (setting [10]), 0.5 µg/mL (≈ 2.92 µM); in assay [5] (Test 1, 24 hours at 37° C.), 0.5 µg/mL (≈ 2.92 µM); in assay [5] (Test 2, 24 hours at 37° C.), 0.25 µg/mL (≈ 1.46 µM). In addition, the MIC in assay [5] (Test 3, 24 hours at 37° C.) was found to be 0.75 µg/mL (≈ 4.38 µM); in assay [6], 0.3 µg/mL (≈ 1.75 µM); in assay [7] (setting [8]) it was 0.5 µg/mL (≈ 2.92 µM); in assay [7] (setting [9]), 0.25 µg/mL (≈ 1.46 µM); in assay [7] (setting [10]), 0.25 µg/mL (≈ 1.46 µM). Further, the “Minimal Inhibitory Concentration” value in assay [1] (Test 2) and in assay [1] (Test 3) was 0.25 mg/L in each case.
